The values below come from US20050009903A1, “CB2-selective cannabinoid analogues” (priority 2003, published 2005).

The term EC50 denotes the concentration needed to bring the measured effect to its halfway point. Broadly, the Emax is the maximal effect, on the per cent scale that the assay sets.

Read-outs that look alike come from different tables or passages of the source.

The target of assay [1] is T1, CB2 receptor (Homo sapiens, UniProt P34972). The assay can be described thus: [35S]GTPγS binding in human CB2 receptor-expressing CHO cell membranes. The format is biochemical. Also noted: expressed in transfected cells. As to conditions: for efficacy in the [35S]GTPγS assay relative to CP-55,940: in words. In general terms: Binding of GTPγS marks nucleotide exchange on a G protein.

The target of assay [2] is T2, CB1 receptor (Rattus norvegicus, UniProt P20272).
T2 construct: from tissue; host or cells: rat whole brain, P2 membranes
The settings on record: cited from earlier work.

Assay [3] deals with T1, CB2 receptor. Details: expressed in transfected cells. The settings on record: cited from earlier work.
Assay [4] has as its target T1, CB2 receptor. Briefly: CB2 assay: displacement of [3H]CP-55,940 from cloned human CB2 receptor preparation (transfected HEK 293 cells). Type of assay: binding. Details: expressed in transfected cells. The settings on record: for Ratio CB1/CB2: Table 1; for Ratio CB1/CB2 / Ratio CB17CB2: ratio of Ki values; for selectivity for the CB2 receptor: CB2 over CB1 affinity. Background: Loss of bound radioactivity is the signal in a displacement assay; it reports binding, not function.

The target in assay [5] is CB1 receptor (Homo sapiens, UniProt P21554). The settings on record: Gareau et al.; cited from earlier work.
The target of assay [6] is T1, CB2 receptor. The settings on record: Gareau et al.; read-out: Ki at CB2; cited from earlier work.
Assay [7] addresses T2, CB1 receptor. Briefly: CB1 assay: displacement of [3H]CP-55,940 from rat brain membrane preparation. The format is binding.
Where [8] appears, read: Table 1, mean ± SEM, values marked ref 8, 19 or 20, read-out: Ki CB1.
Setting [9] is: previously reported by the applicants (literature refs), read-out: Ki at CB1 receptor.
Where [10] appears, read: previously reported by the applicants (literature refs), read-out: Ki at CB2 receptor.
The mark [11] stands for this setting: read-out: Emax relative to CP-55,940.
Where [12] appears, read: rat brain membranes, read-out: Ki at CB1 receptor.
[13] abbreviates: cloned human CB2, read-out: Ki at CB2 receptor.
The mark [14] stands for this setting: read-out: CB1 (receptor affinity), Table 3, mean ± SEM, 3-(alkoxy-1-naphthoyl)indoles, the same values as Ki in nM.
[15] abbreviates: Table 2, mean ± SEM, 3-(alkyl-1-naphthoyl)indoles, read-out: Ki CB1.
[16] abbreviates: Table 2, mean ± SEM, 3-(alkyl-1-naphthoyl)indoles, read-out: Ki CB2.
The mark [17] stands for this setting: Ki at CB2 receptor, cloned human CB2.

T1 sequence (P34972 whole entry): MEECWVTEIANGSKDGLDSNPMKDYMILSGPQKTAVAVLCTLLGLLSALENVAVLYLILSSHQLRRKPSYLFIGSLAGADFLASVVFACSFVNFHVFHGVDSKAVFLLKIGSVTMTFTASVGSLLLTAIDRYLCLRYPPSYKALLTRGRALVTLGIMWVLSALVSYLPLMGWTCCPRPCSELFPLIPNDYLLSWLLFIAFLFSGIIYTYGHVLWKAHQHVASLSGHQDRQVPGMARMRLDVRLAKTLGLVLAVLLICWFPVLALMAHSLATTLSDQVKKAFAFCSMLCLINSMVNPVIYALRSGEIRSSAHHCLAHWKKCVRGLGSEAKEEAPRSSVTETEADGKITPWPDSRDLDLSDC
T2 sequence (P20272 whole entry): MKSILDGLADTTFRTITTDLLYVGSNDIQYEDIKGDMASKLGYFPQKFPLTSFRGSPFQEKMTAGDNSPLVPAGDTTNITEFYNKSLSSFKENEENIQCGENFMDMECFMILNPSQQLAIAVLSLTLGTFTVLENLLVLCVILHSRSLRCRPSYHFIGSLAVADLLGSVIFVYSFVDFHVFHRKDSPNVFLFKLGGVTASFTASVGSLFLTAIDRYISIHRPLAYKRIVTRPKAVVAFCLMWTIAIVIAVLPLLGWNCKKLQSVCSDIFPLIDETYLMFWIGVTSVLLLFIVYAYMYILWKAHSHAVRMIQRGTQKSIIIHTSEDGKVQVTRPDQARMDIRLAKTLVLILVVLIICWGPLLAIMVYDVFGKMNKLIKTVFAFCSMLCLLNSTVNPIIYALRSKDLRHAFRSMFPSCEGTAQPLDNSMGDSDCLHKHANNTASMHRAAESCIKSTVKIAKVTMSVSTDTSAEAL
CB1 receptor (Homo sapiens, UniProt P21554), sequence (P21554 whole entry): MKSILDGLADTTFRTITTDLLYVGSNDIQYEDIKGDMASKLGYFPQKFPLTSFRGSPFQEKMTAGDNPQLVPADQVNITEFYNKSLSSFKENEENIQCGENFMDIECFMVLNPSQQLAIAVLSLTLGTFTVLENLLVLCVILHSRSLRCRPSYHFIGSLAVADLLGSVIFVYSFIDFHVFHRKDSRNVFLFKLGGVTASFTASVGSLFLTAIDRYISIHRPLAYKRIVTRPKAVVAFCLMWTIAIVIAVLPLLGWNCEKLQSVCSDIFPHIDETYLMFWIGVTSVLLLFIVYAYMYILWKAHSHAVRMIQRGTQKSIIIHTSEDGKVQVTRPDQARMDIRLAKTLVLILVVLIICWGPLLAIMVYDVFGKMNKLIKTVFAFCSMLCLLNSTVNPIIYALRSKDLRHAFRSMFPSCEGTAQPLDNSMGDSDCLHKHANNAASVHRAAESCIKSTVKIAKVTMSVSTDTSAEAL

Regarding “1-Methoxy-3-(1′,1′-dimethylhexyl)-Δ^8-THC [Compound 6e]”, the EC50 in assay [1] (Table 4, mean ± SEM, human CB2 CHO cells, read-out: EC50 GTPγS binding) was determined as 4.6 ± 2 nM. The “Emax (% CP-55940)” value in assay [1] (Table 4, mean ± SEM, per cent relative to 3 μM CP-55,940) stood at 75.7 ± 8.3 % CP-55940.

`CCCCCCC(C)(C)c1ccc2c(c1)OC(C)(C)C1CC=C(CO)CC21` (centres unmarked) [Compound 1, 1-Deoxy-11-hydroxy-3-(1′,1′-dimethylheptyl)-Δ^8-THC]: the Ki is 1.2 ± 0.1 nM in assay [2] (setting [8]); 1.2 nM in assay [2] (setting [9]); 0.03 ± 0.02 nM in assay [3] (Table 1, mean ± SEM, values marked ref 30, 19 or 20, read-out: Ki CB2); 0.032 nM in assay [3] (setting [10]). In assay [4], the “Ratio CB1/CB2” value amounted to 40.

`CCCCCCC(C)(C)c1ccc2c(c1)OC(C)(C)C1CC=C(C)CC21` (centres unmarked) [Compound 2, 1-Deoxy-3-(1′,1′-dimethylheptyl)-Δ^8-THC]: the values for the Ki in assay [2] (setting [8]), in assay [2] (setting [9]) and in assay [3] (setting [10]) were 22.8 ± 7.3 nM, 23 nM and 2.9 nM, respectively. In assay [4], the “Ratio CB1/CB2” value turned out to be 7.9.

In the case of `C=C1CCC2C(C1)c1c(OC)cc(C(C)(C)CCCCCC)cc1OC2(C)C` (centres unmarked) [Compound 5, 1-methoxy-66 ^9(11)-THC-DMH], the “Ki at CB1” value in assay [5] is “virtually no affinity”. Also, in assay [6], the Ki is about 20 nM.

Regarding `CCCCCn1c(C)c(C(=O)c2cccc3ccccc23)c2ccccc21` [JWH-007, 1-pentyl-2-methyl-3-(1-naphthoyl)indole], the Ki in assay [3] (read-out: Ki CB2, Table 2, mean ± SEM, values marked with literature refs) is 2 ± 2.6 nM. For the same compound, the “Ratio CB17CB2” value in assay [4] (Table 2) stood at 3.3.

For `CCCn1c(C)c(C(=O)c2cccc3ccccc23)c2ccccc21` [JWH-015, 2-Methyl-1-propyl-3-(1-naphthoyl)indole], the Emax in assay [1] (read-out: Emax (% CP-55940)) and in assay [1] (setting [11]) was 65.7 ± 6.4% throughout.

Consider `CCCn1cc(C(=O)c2ccc(C)c3ccccc23)c2ccccc21` [JWH-120, 1-Propyl-3-(4-methyl-1-naphthoyl)indole], for which the Ki in assay [7] (setting [12]) turned out to be 1050 ± 31 nM; in assay [4] (setting [13]), 6.1 ± 7 nM. In assay [4], the “selectivity for the CB2 receptor” value worked out at 173 fold. The “Ratio CB17CB2” value in assay [4] (Table 2) turned out to be 173. Further, in assay [1], the EC50 was 5.1 ± 1.6 nM. The “efficacy in the [35S]GTPγS assay relative to CP-55,940” value in assay [1] is “partial agonists”. For the same compound, the Emax in assay [1] (read-out: Emax (% CP-55940)) and in assay [1] (setting [11]) was 78.1 ± 10.7% throughout.

Take `CCCn1c(C)c(C(=O)c2cccc3cc(OC)ccc23)c2ccccc21` [JWH-151, 2-Methyl-1-propyl-3-(6-methoxy-1-naphthoyl)indole]: the Ki in assay [7] is over 10000 nM; in assay [7] (setting [14]), over 10000 nM; in assay [4] (setting [13]) it was 30 ± 1 nM. Besides, in assay [4], the “selectivity for the CB2 receptor” value was over 333 fold. A half-maximal effect in assay [1] (EC50) was put at 12 ± 2.9 nM. For the same compound, the “efficacy in the [35S]GTPγS assay relative to CP-55,940” value in assay [1] is given as “highly efficacious”. Also, the Emax in assay [1] (read-out: Emax (% CP-55940)) and in assay [1] (setting [11]) was 108 ± 13% in each case.

As for `CCCCCn1c(C)c(C(=O)c2ccc(CC)c3ccccc23)c2ccccc21` [JWH-213, 2-Methyl-1-pentyl-3-(4-ethyl-1-naphthoyl)indole], the Ki in assay [7] (setting [15]) was 1.5 ± 0.2 nM; in assay [4] (setting [16]), 0.42 ± 0.05 nM. In addition, the “Ratio CB17CB2” value in assay [4] (Table 2) turned out to be 3.6.

As for `CCCCCn1cc(C(=O)c2cccc3ccc(CC)cc23)c2ccccc21` [JWH-234, 1-Pentyl-3-(7-ethyl-1-naphthoyl)indole], the Ki in assay [7] (setting [12]) was 8.4 ± 1.8 nM; in assay [4] (setting [13]), 3.8 ± 0.6 nM. Further, the “Ratio CB17CB2” value in assay [4] (Table 2) is 2.2.

Take `CCCn1cc(C(=O)c2cccc3ccc(CC)cc23)c2ccccc21` [JWH-235, 1-Propyl-3-(7-ethyl-1-naphthoyl)indole]: the figures for the Ki in assay [7] (setting [12]) and in assay [4] (setting [13]) were 338 ± 34 nM and 123 ± 34 nM, respectively. Further, the “Ratio CB17CB2” value in assay [4] (Table 2) came to 2.7.

Turning to `CCCn1c(C)c(C(=O)c2cccc3ccc(CC)cc23)c2ccccc21` [JWH-236, 2-Methyl-1-propyl-3-(7-ethyl-1-naphthoyl) indole], the results for the Ki in assay [7] (setting [12]) and in assay [4] (setting [13]) were 1350 ± 204 nM and 240 ± 63 nM, respectively. In addition, in assay [4] (Table 2), the “Ratio CB17CB2” value is given as 5.6.

With `CCCCc1ccc(C(=O)c2cn(CCC)c3ccccc23)c2ccccc12` [JWH-239, 1-Propyl-3-(4-butyl-1-naphthoyl)indole], the Ki stood at 342 ± 20 nM in assay [7] (setting [12]) and 52 ± 6 nM in assay [4] (setting [13]). Also, the “Ratio CB17CB2” value in assay [4] (Table 2) was 6.6.

For the compound `CCCCCn1cc(C(=O)c2ccc(CCCC)c3ccccc23)c2ccccc21` [JWH-240, 1-Pentyl-3-(4-butyl-1-naphthoyl)indole], the Ki in assay [7] (setting [12]) is 14 ± 1 nM; in assay [4] (setting [13]) it was 7.2 ± 13 nM. In addition, the “Ratio CB17CB2” value in assay [4] (Table 2) was found to be 1.9.

With `CCCCc1ccc(C(=O)c2c(C)n(CCC)c3ccccc23)c2ccccc12` [JWH-241, 2-Methyl-1-propyl-3-(4-butyl-1-naphthoyl)indole], the Ki in assay [7] (setting [12]) was 147 ± 20 nM; in assay [4] (setting [13]), 49 ± 7 nM. Besides, the “Ratio CB17CB2” value in assay [4] (Table 2) is listed as 3.0.

On to `CCCCCn1c(C)c(C(=O)c2ccc(CCCC)c3ccccc23)c2ccccc21` [JWH-242, 2-Methyl-1-pentyl-3-(4-butyl-1-naphthoyl)indole], for which the results for the Ki in assay [7] (setting [12]) and in assay [4] (setting [13]) were 42 ± 9 nM and 6.5 ± 0.3 nM, respectively. In assay [4] (Table 2), the “Ratio CB17CB2” value worked out at 6.5.

Turning to `CCCCCn1cc(C(=O)c2ccc(OCC)c3ccccc23)c2ccccc21` [JWH-258, 1-Pentyl-3-(4-ethoxy-1-naphthoyl)indole], the Ki came to 4.6 ± 0.6 nM in assay [7] (setting [12]) and 10.5 ± 1.3 nM in assay [4] (setting [13]).

`CCCn1cc(C(=O)c2ccc(OCC)c3ccccc23)c2ccccc21` [JWH-259, 1-Propyl-3-(4-ethoxy-1-naphthoyl)indole]: the values for the Ki in assay [7] (setting [12]) and in assay [4] (setting [13]) were 220 ± 29 nM and 74 ± 7 nM, respectively.

For `CCCCCn1c(C)c(C(=O)c2ccc(OCC)c3ccccc23)c2ccccc21` [JWH-260, 2-Methyl-1-pentyl-3-(4-ethoxy-1-naphthoyl)indole], the Ki in assay [7] (setting [12]) is 29 ± 0.4 nM; in assay [4] (setting [13]) it was 25 ± 1.9 nM.

In the case of `CCCn1c(C)c(C(=O)c2ccc(OCC)c3ccccc23)c2ccccc21` [JWH-261, 2-Methyl-1-propyl-3-(4-ethoxy-1-naphthoyl)indole], the Ki in assay [7] (setting [12]) is 767 ± 105 nM; in assay [4] (setting [13]) it was 221 ± 14 nM.

For the compound `CCCCCn1c(C)c(C(=O)c2cccc3ccc(CC)cc23)c2ccccc21` [JWH-262, 2-Methyl-1-pentyl-3-(7-ethyl-1-naphthoyl)indole], the values for the Ki in assay [7] (setting [15]) and in assay [4] (setting [16]) were 28 ± 3 nM and 5.6 ± 0.7 nM, respectively. For the same compound, the “Ratio CB17CB2” value in assay [4] (Table 2) was 5.0.

As for `CCCn1c(C)c(C(=O)c2c(OC)ccc3ccccc23)c2ccccc21` [JWH-266, 2-Methyl-1-propyl-3-(2-methoxy-1-naphthoyl)indole], the Ki in assay [7] was over 10000 nM; in assay [7] (setting [14]) it was over 10000 nM; in assay [4] (setting [17]), 455 ± 55 nM.

Consider `CCCCCn1cc(C(=O)c2c(OC)ccc3ccccc23)c2ccccc21` [JWH-267, 1-Pentyl-3-(2-methoxy-1-naphthoyl)indole], for which the Ki in assay [7] (setting [12]) stood at 381 ± 16 nM; in assay [4] (setting [17]), 7.35 nM; in assay [4] (Table 3, mean ± SEM, 3-(alkoxy-1-naphthoyl)indoles, the same values as Ki in nM, read-out: CB2 (receptor affinity)) it was 7.2 ± 0.14 nM. Also, the “selectivity for the CB2 receptor” value in assay [4] is 53 fold. Also, the EC50 in assay [1] amounted to 4.9 ± 0.8 nM. Further, the “efficacy in the [35S]GTPγS assay relative to CP-55,940” value in assay [1] was “partial agonists”. Further, the Emax in assay [1] (read-out: Emax (% CP-55940)) came to 67.3 ± 2.9%.

Take `CCCCCn1c(C)c(C(=O)c2c(OC)ccc3ccccc23)c2ccccc21` [JWH-268, 2-Methyl-1-pentyl-3-(2-methoxy-1-naphthoyl)indole]: the Ki amounted to 1380 ± 193 nM in assay [7] (Table 3, mean ± SEM, 3-(alkoxy-1-naphthoyl)indoles, the same values as Ki in nM, read-out: CB1 (receptor affinity)) and 40 ± 1 nM in assay [4] (setting [13]).
